A value given as a limit tells only on which side of the number the result lay.

The first test addresses T1, apelin receptor (APJ) (Homo sapiens, UniProt P35414).
T1 sequence (P35414 1-380): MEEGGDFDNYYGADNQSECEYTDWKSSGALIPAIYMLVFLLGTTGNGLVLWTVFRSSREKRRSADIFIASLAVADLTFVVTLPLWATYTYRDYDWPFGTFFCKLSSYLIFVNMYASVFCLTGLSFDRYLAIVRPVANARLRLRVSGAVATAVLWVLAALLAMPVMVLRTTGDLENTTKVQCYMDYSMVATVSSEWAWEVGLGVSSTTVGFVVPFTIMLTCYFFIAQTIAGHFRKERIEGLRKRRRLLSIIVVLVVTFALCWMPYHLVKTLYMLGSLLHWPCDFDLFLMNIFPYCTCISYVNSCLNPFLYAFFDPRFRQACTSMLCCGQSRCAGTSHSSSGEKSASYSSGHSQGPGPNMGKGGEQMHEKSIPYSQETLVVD
Description: In vitro apelin agonist activity (methods of Giddings et al., Apelin-13 as positive control). It is filed as cell-based. The note with it: EC50 (nM) Ave, in vitro apelin agonist activity, methods of Giddings et al., Apelin-13 as positive control. The text has this: Characterization of the Apelin Agonist Activity of the Compounds
1:39-47, the contents of which are hereby incorporated by reference in its entirety. Using the methods described in Giddings et al. and Apelin-13 as a positive control.
The term EC50 denotes the concentration needed to bring the measured effect to its halfway point. The molecule `O=C(C[C@H](CN1CCC(F)(F)C1)NC(=O)c1cc(-c2ccccc2C(F)(F)F)n(C2CCCC2)n1)NC1CCC1` [compound 523, (3R)-N-cyclobutyl-3-({1-cyclopentyl-5-[2-(trifluoromethyl)phenyl]-1H-pyrazol-3-yl}formamido)-4-(3,3-difluoropyrrolidin-1-yl)butanamide] came in with a 50% effective concentration (EC50) of 1210 nM.
Same read-out and setting: the figure for `O=C(C[C@H](CN1CCCC(F)(F)C1)NC(=O)c1cc(-c2ccccc2C(F)(F)F)n(C2CCCC2)n1)NC1CCC1` [compound 524, (3R)-N-cyclobutyl-3-({1-cyclopentyl-5-[2-(trifluoromethyl)phenyl]-1H-pyrazol-3-yl]formamido)-4-(3,3-difluoropiperidin-1-yl)butanamide] is 910 nM.

The same test, now with this note: in vitro apelin agonist activity, methods of Giddings et al., Apelin-13 as positive control; read-out: EC50 (nM) Ave.
Take `O=C(C[C@H](CCN1CCCCCC1)NC(=O)c1cc(-c2ccccc2C(F)(F)F)n(C2CCCC2)n1)NC1CCC1` [compound 505, (3S)-5-(azepan-1-yl)-N-cyclobutyl-3-({1-cyclopentyl-5-[2(trifluoromethyl)phenyl]-1H-pyrazol-3-yl}formamido)pentanamide]: the EC50 is 34 nM.
Same read-out and setting: the figure for `CN(CC[C@@H](CC(=O)NC1CCC1)NC(=O)c1cc(-c2ccccc2C(F)(F)F)n(C2CCCC2)n1)C1CCC1` [compound 506, (3S)-N-cyclobutyl-5-[cyclobutyl(methyl)amino]-3-({1-cyclopentyl-5-[2-(trifluoromethyl)phenyl]-1H-pyrazol-3-yl}formamido)pentanamide] is 32 nM; for `O=C(O)C[C@H](CC(=O)N1CCCCC1)NC(=O)c1cc(-c2ccccc2C(F)(F)F)n(C2CCCC2)n1` [compound 508, (3S)-3-({1-cyclopentyl-5-[2-(trifluoromethyl)phenyl]-1H-pyrazol-3-yl}formamido)-5-oxo-5-(piperidin-1-yl)pentanoic acid] it is 475 nM; for `O=C(O)C[C@H](CC(=O)N1CCCC(F)(F)C1)NC(=O)c1cc(-c2ccccc2C(F)(F)F)n(C2CCCC2)n1` [compound 509, (3S)-3-({1-cyclopentyl-5-[2-(trifluoromethyl)phenyl]-1H-pyrazol-3-yl}formamido)-5-(3,3-difluoropiperidin-1-yl)-5-oxopentanoic acid] it is 1060 nM.
The same measure, in the same setting: in the case of `O=C(C[C@H](CCc1ccc(F)cc1)NC(=O)c1cc(-c2ccccc2C(F)(F)F)n(C2CCCC2)n1)NN1CCCC1` [compound 510, (3S)-3-({1-cyclopentyl-5-[2-(trifluoromethyl)phenyl]-1H-pyrazol-3-yl}formamido)-5-(4-fluorophenyl)-N-(pyrrolidin-1-yl)pentanamide] it was 2190 nM.
Still for that read-out and setting: the figure for `CN(CC[C@@H](CC(=O)NC1CCC1)NC(=O)c1cc(-c2ccccc2C(F)(F)F)n(C2CCCC2)n1)C1(C)CCCC1` [compound 511, (3S)-N-cyclobutyl-3-({1-cyclopentyl-5-[2-(trifluoromethyl)phenyl]-1H-pyrazol-3-yl}formamido)-5-[methyl(1-methylcyclopentyl)amino]pentanamide] is 35 nM; for `O=C(C[C@H](CC(=O)N1CCCCC1)NC(=O)c1cc(-c2ccccc2C(F)(F)F)n(C2CCCC2)n1)NC1CCC1` [compound 514, (3R)-N-cyclobutyl-3-({1-cyclopentyl-5-[2-(trifluoromethyl)phenyl]-1H-pyrazol-3-yl}formamido)-5-oxo-5-(piperidin-1-yl)pentanamide] it is 79 nM; for `O=C(C[C@H](CC(=O)N1CCCC(F)(F)C1)NC(=O)c1cc(-c2ccccc2C(F)(F)F)n(C2CCCC2)n1)NC1CCC1` [compound 515, (3R)-N-cyclobutyl-3-({1-cyclopentyl-5-[2-(trifluoromethyl)phenyl]-1H-pyrazol-3-yl}formamido)-5-(3,3-difluoropiperidin-1-yl)-5-oxopentanamide] it is 47 nM.
Regarding `CC1(C)CCCCN1CC[C@@H](CC(=O)NC1CCC1)NC(=O)c1cc(-c2ccccc2C(F)(F)F)n(C2CCCC2)n1` [compound 517, (3S)-N-cyclobutyl-3-({1-cyclopentyl-5-[2-(trifluoromethyl)phenyl]-1H-pyrazol-3-yl}formamido)-5-(2,2-dimethylpiperidin-1-yl)pentanamide], the concentration for a half-maximal effect (EC50) is 261 nM.
The same measure, in the same setting: in the case of `O=C(O)C[C@H](CN1CCC(F)(F)C1)NC(=O)c1cc(-c2ccccc2C(F)(F)F)n(C2CCCC2)n1` [compound 518, (3R)-3-({1-cyclopentyl-5-[2-(trifluoromethyl)phenyl]-1H-pyrazol-3-yl}formamido)-4-(3,3-difluoropyrrolidin-1-yl)butanoic acid] it was over 10000 nM; in that of `O=C(O)C[C@H](CN1CCCC(F)(F)C1)NC(=O)c1cc(-c2ccccc2C(F)(F)F)n(C2CCCC2)n1` [compound 519, (3R)-3-({1-cyclopentyl-5-[2-(trifluoromethyl)phenyl]-1H-pyrazol-3-yl]formamido)-4-(3,3-difluoropiperidin-1-yl)butanoic acid], over 10000 nM; in that of `O=C(C[C@H](CCN1CCCCC1)NC(=O)c1cc(-c2ccccc2C(F)(F)F)n(C2CCCC2)n1)NC1CC(F)(F)C1` [compound 520, (3S)-3-({1-cyclopentyl-5-[2-(trifluoromethyl)phenyl]-1H-pyrazol-3-yl}formamido)-N-(3,3-difluorocyclobutyl)-5-(piperidin-1-yl)pentanamide], 45 nM.
Same read-out and setting: the figure for `O=C(C[C@H](CCN1CC2CCC1CC2)NC(=O)c1cc(-c2ccccc2C(F)(F)F)n(C2CCCC2)n1)NC1CCC1` [compound 521] is 100 nM.
With `O=C(C[C@H](CCN1CCCCC12COC2)NC(=O)c1cc(-c2ccccc2C(F)(F)F)n(C2CCCC2)n1)NC1CCC1` [compound 522], the 50% effective concentration (EC50) turned out to be 64 nM.
Same read-out and setting: the figure for `O=C(O)C[C@H](CCN1CCCC(F)(F)C1)NC(=O)c1nc(-c2cccnc2C(F)(F)F)n(C2CCCC2)n1` [compound 525] is over 10000 nM; for `O=C(N[C@@H](CC1CCCC1)C(=O)O)c1cc(-c2ccccc2C(F)(F)F)n(C2CCCC2)n1` [compound 526, (2S)-3-cyclopentyl-2-({1-cyclopentyl-5-[2-(trifluoromethyl)phenyl]-1H-pyrazol-3-yl}formamido)propanoic acid] it is 1720 nM; for `CC(C)C[C@H](NC(=O)c1cc(-c2ccccc2C(F)(F)F)n(C2CCCC2)n1)C(=O)O` [compound 527, (2S)-2-({1-cyclopentyl-5-[2-(trifluoromethyl)phenyl]-1H-pyrazol-3-yl}formamido)-4-methylpentanoic acid] it is over 10000 nM.
Consider `CC(C)[C@H](NC(=O)c1cc(-c2ccccc2C(F)(F)F)n(C2CCCC2)n1)C(=O)O` [compound 528, (2S)-2-({1-cyclopentyl-5-[2-(trifluoromethyl)phenyl]-1H-pyrazol-3-yl}formamido)-3-methylbutanoic acid], for which the EC50 was over 10000 nM.
On the same count and under the same terms, the figure for `O=C(C[C@H](CCN1CCCC(F)(F)C1)NC(=O)c1cc(-c2ccccc2C(F)(F)F)n(C2CCCC2)n1)NS(=O)(=O)C(F)(F)F` [compound 529, (3S)-3-({1-cyclopentyl-5-[2-(trifluoromethyl)phenyl]-1H-pyrazol-3-yl}formamido)-5-(3,3-difluoropiperidin-1-yl)-N-(trifluoromethane)sulfonylpentanamide] is 134 nM; for `CN(C[C@@H](CC(=O)O)NC(=O)c1cc(-c2ccccc2C(F)(F)F)n(C2CCCC2)n1)C1CCCCC1` [compound 533, (3R)-4-[cyclohexyl(methy)amino1]-3-({1-cyclopentyl-5-[2-(trifluoromethyl)phenyl]-1H-pyrazol-3-yl}formamido)butanoic acid] it is 822 nM.

The values are drawn from US11535630B2, “Apelin receptor (APJ) agonists and uses thereof” (Research Triangle Institute, priority 2015, dated 2022).
